{"source": "paper PMC10997755", "about": "“Discovery of a small-molecule inhibitor that traps Polθ on DNA and synergizes with PARP inhibitors” (Nature Communications, 2024)", "key": {"[1]": {"tested_on": "Polε", "assay": "Primer extension by recombinant Pols (selectivity)", "format": "biochemical"}, "[2]": {"assay": "Clonogenic assay, OLA with or without RTX-161 (Fig. 2 a; cell line not given)", "format": "cell-based", "details": "OLA 0, single experiments, relative to vehicle"}, "[3]": {"tested_on": "HCT116 Parental cells", "assay": "Clonogenic assay", "format": "cell-based", "details": "for Average number of colonies counted / Normalized colonies (% normalized to control): per experiment", "procedure,_shortened": "(§1)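 Colony formation by BRCA-deficient, PALB2-mutant and wild-type cells (300–1000 cells/well) and MEFs (300 cells/well) over 10–12 days, medium changed every 2 days. Colonies fixed, stained with 0.5% crystal violet and counted; IC50 from 3 or more independent experiments.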"}, "[4]": {"tested_on": "PALB2 complemented EUFA1341 cells", "assay": "Clonogenic assay", "format": "cell-based", "details": "for Average (raw signal of wells) / Normalized (0 micro M = 100) / average - blank: per experiment", "procedure,_shortened": "as §1"}, "[5]": {"tested_on": "EUFA1341 PALB2 mut cells", "assay": "Clonogenic assay", "format": "cell-based", "procedure,_shortened": "as §1"}, "[6]": {"tested_on": "CAPAN-1 cells", "assay": "Clonogenic assay", "format": "cell-based", "details": "Capan-1 cells", "procedure,_shortened": "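Cells seeded at low density (300–1000 per well, by plate size and genotype), medium changed every 2 days, colonies grown 10–12 days. Fixed in water:ethanol:acetic acid, stained with 0.5% crystal violet, then counted; IC50 from ≥3 independent experiments, mean ± SEM.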"}}, "note": "Values joined by “and” are separate entries in the source; they are usually repeats but may differ in a detail not shown here. Equal entries are not always repeated.", "data": [{"smiles": "CN(C(=O)Oc1c(N2CCN(CCO)C2=O)cc(C(F)(F)F)cc1C(F)(F)F)c1ccc(F)cc1", "note": "[RTx-161]", "values": [{"measurement": "% Full Extension", "setting": "[1]; Pol Epsilon", "result": 91.14, "unit": "%"}, {"measurement": "% Inhibition Compared to Control", "setting": "[1]; Pol Epsilon", "result": -0.19, "unit": "%"}, {"measurement": "% Relative Maximum Extension", "setting": "[1]; Pol Epsilon", "result": 100.19, "unit": "%"}, {"measurement": "inhibition of primer extension", "setting": "[1]; selectivity panel, Pol named in Supplementary Fig. 1h", "result": "no inhibition"}, {"measurement": "percent suvival", "setting": "[2]; RTX-161 0.5 micro M", "result": "63.3333% and 80.7018% and 61.1842%"}, {"measurement": "percent suvival", "setting": "[2]; RTX-161 1 micro M", "result": "55.8333% and 71.9298% and 46.0526%"}, {"measurement": "percent suvival", "setting": "[2]; RTX-161 2 micro M", "result": "43.3333% and 23.3918% and 22.3684%"}, {"measurement": "effect in BRCA2-WT cells", "setting": "[3]; HCT116, colony survival", "result": "little to no effect"}, {"measurement": "Normalized colonies, pooled Average of 3 experiments", "setting": "[3]; RTX-161 0.5 micro M", "result": 101.74, "unit": "%"}, {"measurement": "Average number of colonies counted", "setting": "[3]; RTX-161 0.5 micro M", "result": "118 and 67.6667 and 68.6667"}, {"measurement": "Normalized colonies (% normalized to control)", "setting": "[3]; RTX-161 0.5 micro M", "result": "99.7183% and 107.407% and 98.0952%"}, {"measurement": "Normalized colonies, pooled Average of 3 experiments", "setting": "[3]; RTX-161 1 micro M", "result": 98.8027, "unit": "%"}, {"measurement": "Average number of colonies counted", "setting": "[3]; RTX-161 1 micro M", "result": "114.333 and 64.6667 and 68"}, {"measurement": "Normalized colonies (% normalized to control)", "setting": "[3]; RTX-161 1 micro M", "result": "96.6197% and 102.646% and 97.1429%"}, {"measurement": "Normalized colonies, pooled Average of 3 experiments", "setting": "[3]; RTX-161 2 micro M", "result": 97.4337, "unit": "%"}, {"measurement": "Average number of colonies counted", "setting": "[3]; RTX-161 2 micro M", "result": "112.667 and 59.6667 and 71.6667"}, {"measurement": "Normalized colonies (% normalized to control)", "setting": "[3]; RTX-161 2 micro M", "result": "95.2113% and 94.709% and 102.381%"}, {"measurement": "Normalized colonies, pooled Average of 3 experiments", "setting": "[3]; RTX-161 4 micro M", "result": 97.4186, "unit": "%"}, {"measurement": "Average number of colonies counted", "setting": "[3]; RTX-161 4 micro M", "result": "107.667 and 62 and 72"}, {"measurement": "Normalized colonies (% normalized to control)", "setting": "[3]; RTX-161 4 micro M", "result": "90.9859% and 98.4127% and 102.857%"}, {"measurement": "Normalized colonies, pooled Average of 3 experiments", "setting": "[3]; RTX-161 8 micro M", "result": 96.7852, "unit": "%"}, {"measurement": "Average number of colonies counted", "setting": "[3]; RTX-161 8 micro M", "result": "104.667 and 63 and 71.3333"}, {"measurement": "Normalized colonies (% normalized to control)", "setting": "[3]; RTX-161 8 micro M", "result": "88.4507% and 100% and 101.905%"}, {"measurement": "activity against PALB2 complemented EUFA1341 cells", "setting": "[4]", "result": "little to no activity"}, {"measurement": "Average (raw signal of wells)", "setting": "[4]; RTX-161 2.5 micro M", "result": "1.026 and 0.9713 and 0.6573"}, {"measurement": "Normalized (0 micro M = 100)", "setting": "[4]; RTX-161 2.5 micro M", "result": "116.435% and 111.613% and 105.551%"}, {"measurement": "average - blank", "setting": "[4]; RTX-161 2.5 micro M", "result": "0.8256 and 0.7713 and 0.5073"}, {"measurement": "Average (raw signal of wells)", "setting": "[4]; RTX-161 5 micro M", "result": "1.035 and 0.9992"}, {"measurement": "Normalized (0 micro M = 100)", "setting": "[4]; RTX-161 5 micro M", "result": "117.788% and 115.651% and 105.551%"}, {"measurement": "average - blank", "setting": "[4]; RTX-161 5 micro M", "result": "0.8352 and 0.7992 and 0.5073"}, {"measurement": "Average (raw signal of wells)", "setting": "[4]; RTX-161 10 micro M", "result": "0.6121 and 1.137 and 1.058"}, {"measurement": "Normalized (0 micro M = 100)", "setting": "[4]; RTX-161 10 micro M", "result": "96.1382% and 132.128% and 124.139%"}, {"measurement": "survival of PALB2-mutant EUFA1341 cells", "setting": "[5]", "result": "significant reduction in the survival"}, {"measurement": "IC50", "setting": "[5]; EUFA1341 cells, label beside PALB2-mut curve, read-out: IC50 clonogenic survival", "result": "~5", "unit": "µM"}, {"measurement": "Normalized (0 micro M = 100)", "setting": "[5]; RTX-161 2.5 micro M, per experiment", "result": "67.9566% and 76.5823% and 64.8427%"}, {"measurement": "Normalized (0 micro M = 100)", "setting": "[5]; RTX-161 5 micro M, per experiment", "result": "50.4887% and 55.1827% and 45.6779%"}, {"measurement": "Average (raw signal of wells)", "setting": "[5]; RTX-161 10 micro M, per experiment", "result": "0.37 and 0.6469 and 0.6018"}, {"measurement": "percent suvival", "setting": "[6]; RTX-161 2 micro M + ola 0.041 micro M, experiment block 1 (c0-c9)", "result": 16.0976, "unit": "%"}, {"measurement": "percent suvival", "setting": "[6]; RTX-161 2 micro M + ola 0.041 micro M, experiment block 2 (c10-c19)", "result": 65.2438, "unit": "%"}, {"measurement": "percent suvival", "setting": "[6]; RTX-161 2 micro M + ola 0.041 micro M, experiment block 3 (c20-c29)", "result": 82.5985, "unit": "%"}, {"measurement": "percent suvival", "setting": "[6]; RTX-161 2 micro M + ola 0.123 micro M, experiment block 1 (c0-c9)", "result": 6.496, "unit": "%"}, {"measurement": "percent suvival", "setting": "[6]; RTX-161 2 micro M + ola 0.123 micro M, experiment block 2 (c10-c19)", "result": 35.6906, "unit": "%"}, {"measurement": "percent suvival", "setting": "[6]; RTX-161 2 micro M + ola 0.123 micro M, experiment block 3 (c20-c29)", "result": 71.0728, "unit": "%"}, {"measurement": "percent suvival", "setting": "[6]; RTX-161 2 micro M + ola 0.37 micro M, experiment block 1 (c0-c9)", "result": 4.656, "unit": "%"}, {"measurement": "percent suvival", "setting": "[6]; RTX-161 2 micro M + ola 0.37 micro M, experiment block 2 (c10-c19)", "result": 25.2846, "unit": "%"}, {"measurement": "percent suvival", "setting": "[6]; RTX-161 2 micro M + ola 0.37 micro M, experiment block 3 (c20-c29)", "result": 54.8012, "unit": "%"}, {"measurement": "percent suvival", "setting": "[6]; RTX-161 2 micro M + ola 1.11 micro M, experiment block 1 (c0-c9)", "result": 3.463, "unit": "%"}, {"measurement": "percent suvival", "setting": "[6]; RTX-161 2 micro M + ola 1.11 micro M, experiment block 2 (c10-c19)", "result": 19.041, "unit": "%"}, {"measurement": "percent suvival", "setting": "[6]; RTX-161 2 micro M + ola 1.11 micro M, experiment block 3 (c20-c29)", "result": 23.1621, "unit": "%"}, {"measurement": "percent suvival", "setting": "[6]; RTX-161 2 micro M, ola 0.00 micro M, experiment block 1 (c0-c9)", "result": 102.855, "unit": "%"}, {"measurement": "percent suvival", "setting": "[6]; RTX-161 2 micro M, ola 0.00 micro M, experiment block 2 (c10-c19)", "result": 79.1879, "unit": "%"}]}]}
